“And” between values parts separate entries of the source, which are not always exact repeats. Equal values may be shown once.
System: not listed separately
Assay: DNA delivery: raw luciferase expression (relative light units) of best-transfecting lipids
Type: cell-based
Conditions: lipid/DNA 2.5 w/w; 300 ng of DNA per well
Experimental: Raw values for luciferase expression (relative lights units) of best-transfecting lipids at lipid/DNA (w/w) ratios listed. 300 ng of DNA was added per well.

Row | SMILES | Raw values for luciferase expression
1 | CCCCCCCCCCCCNC(=O)CCN(CCC(=O)NCCCCCCCCCCCC)CCN(CCC(=O)NCCCCCCCCCCCC)CCC(=O)NCCCCCCCCCCCC [ND99] | 10252260 relative lights units and 11757295 relative lights units
2 | CCCCCCCCCCCCCCCNC(=O)CCN(CC)CCCN(CC)CCC(=O)NCCCCCCCCCCCCCCC [NG64] | 2585784 relative lights units

Same assay, conditions: lipid/DNA 5 w/w; 300 ng of DNA per well

Row | SMILES | Raw values for luciferase expression
3 | CCCCCCCCCCCCNC(=O)CCN(CCC(=O)NCCCCCCCCCCCC)CCN(CCC(=O)NCCCCCCCCCCCC)CCC(=O)NCCCCCCCCCCCC [ND99] | 9886021 relative lights units and 7656193 relative lights units
4 | CCCCCCCCCCCCCCCNC(=O)CCN(CC)CCCN(CC)CCC(=O)NCCCCCCCCCCCCCCC [NG64] | 1972838 relative lights units

System: cos-7 cells
Assay: DNA transfection: luciferase expression relative to Lipofectamine 2000
Type: cell-based
Conditions: lipid/DNA 2.5 w/w; 300 ng of DNA per well
Outline: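 Lipid/DNA complexes, 300 ng luciferase DNA per well at 2.5-25 w/w lipid:DNA, were formed in sodium acetate/Optimem and added to overnight-seeded cos-7 cells. Luciferase was measured by Bright-Glo luminescence after 48 hours and quantified against an enzyme standard curve. Values are expressed as % of Lipofectamine 2000 at 2.5 w/w.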

Row | SMILES | luciferase expression (second part of table, values relative to LIPO2000)
5 | CCCCCCCCCCCCNC(=O)CCN(CCC(=O)NCCCCCCCCCCCC)CCN(CCC(=O)NCCCCCCCCCCCC)CCC(=O)NCCCCCCCCCCCC [ND99] | 16.8

Same assay, conditions: lipid/DNA 5 w/w; 300 ng of DNA per well

Row | SMILES | luciferase expression (second part of table, values relative to LIPO2000)
6 | CCCCCCCCCCCCNC(=O)CCN(CCC(=O)NCCCCCCCCCCCC)CCN(CCC(=O)NCCCCCCCCCCCC)CCC(=O)NCCCCCCCCCCCC [ND99] | 36.5

Same assay, conditions: lipid/DNA 10 w/w; 300 ng of DNA per well

Row | SMILES | luciferase expression (second part of table, values relative to LIPO2000)
7 | CCCCCCCCCCCCNC(=O)CCN(CCC(=O)NCCCCCCCCCCCC)CCN(CCC(=O)NCCCCCCCCCCCC)CCC(=O)NCCCCCCCCCCCC [ND99] | 78.6

Same assay, conditions: lipid/DNA 15 w/w; 300 ng of DNA per well

Row | SMILES | luciferase expression (second part of table, values relative to LIPO2000)
8 | CCCCCCCCCCCCNC(=O)CCN(CCC(=O)NCCCCCCCCCCCC)CCN(CCC(=O)NCCCCCCCCCCCC)CCC(=O)NCCCCCCCCCCCC [ND99] | 91.7

Same assay, conditions: replicate set, 1st column; no head printed (2.5 w/w by the raw values)

Row | SMILES | luciferase expression, second set of columns (replicate set of data)
9 | CCCCCCCCCCCCNC(=O)CCN(CCC(=O)NCCCCCCCCCCCC)CCN(CCC(=O)NCCCCCCCCCCCC)CCC(=O)NCCCCCCCCCCCC [ND99] | 132.7

Same assay, conditions: replicate set, 2nd column; no head printed (5 w/w by the raw values)

Row | SMILES | luciferase expression, second set of columns (replicate set of data)
10 | CCCCCCCCCCCCNC(=O)CCN(CCC(=O)NCCCCCCCCCCCC)CCN(CCC(=O)NCCCCCCCCCCCC)CCC(=O)NCCCCCCCCCCCC [ND99] | 97.5

Same assay, conditions: replicate set, 3rd column; no head printed (10 w/w by the raw values)

Row | SMILES | luciferase expression, second set of columns (replicate set of data)
11 | CCCCCCCCCCCCNC(=O)CCN(CCC(=O)NCCCCCCCCCCCC)CCN(CCC(=O)NCCCCCCCCCCCC)CCC(=O)NCCCCCCCCCCCC [ND99] | 6.8

Same assay, conditions: replicate set, 4th column; no head printed (15 w/w by the raw values)

Row | SMILES | luciferase expression, second set of columns (replicate set of data)
12 | CCCCCCCCCCCCNC(=O)CCN(CCC(=O)NCCCCCCCCCCCC)CCN(CCC(=O)NCCCCCCCCCCCC)CCC(=O)NCCCCCCCCCCCC [ND99] | 2.2

System: renilla and firefly luciferases
Assay: siRNA delivery: reporter-protein (renilla luciferase) knockdown relative to Lipofectamine 2000, firefly luciferase as viability control
Type: cell-based
Conditions: lipid/RNA 2.5 w/w; 50 ng of siRNA per well
Experimental: Reporter-protein knockdown achieved by the top transfecting lipids relative to Lipofectamine™ 2000 (where negative values indicate improved knockdown). The assay accounts for toxicity, monitoring expression of both renilla and firefly luciferases, where the latter serves as viability control. For each lipid, 50 ng of siRNA was added per well at specific lipid/RNA w/w ratios (from top to bottom: 2.5, 5, 10, 15).

Row | SMILES | Reporter-protein knockdown relative to Lipofectamine 2000 (negative values indicate improved knockdown)
13 | CCCCCCCCCCCCNC(=O)CCN(CCC(=O)NCCCCCCCCCCCC)CCN(CCC(=O)NCCCCCCCCCCCC)CCC(=O)NCCCCCCCCCCCC [ND99] | −10.1961
14 | CCCCCCCCCCCCCCCNC(=O)CCN(CC)CCCN(CC)CCC(=O)NCCCCCCCCCCCCCCC [NG64] | −11.7697

Same assay, conditions: lipid/RNA 5 w/w; 50 ng of siRNA per well

Row | SMILES | Reporter-protein knockdown relative to Lipofectamine 2000 (negative values indicate improved knockdown)
15 | CCCCCCCCCCCCNC(=O)CCN(CCC(=O)NCCCCCCCCCCCC)CCN(CCC(=O)NCCCCCCCCCCCC)CCC(=O)NCCCCCCCCCCCC [ND99] | −9.86
16 | CCCCCCCCCCCCCCCNC(=O)CCN(CC)CCCN(CC)CCC(=O)NCCCCCCCCCCCCCCC [NG64] | −34.6712

Same assay, conditions: lipid/RNA 10 w/w; 50 ng of siRNA per well

Row | SMILES | Reporter-protein knockdown relative to Lipofectamine 2000 (negative values indicate improved knockdown)
17 | CCCCCCCCCCCCNC(=O)CCN(CCC(=O)NCCCCCCCCCCCC)CCN(CCC(=O)NCCCCCCCCCCCC)CCC(=O)NCCCCCCCCCCCC [ND99] | −18.2728
18 | CCCCCCCCCCCCCCCNC(=O)CCN(CC)CCCN(CC)CCC(=O)NCCCCCCCCCCCCCCC [NG64] | 3.073

Same assay, conditions: lipid/RNA 15 w/w; 50 ng of siRNA per well

Row | SMILES | Reporter-protein knockdown relative to Lipofectamine 2000 (negative values indicate improved knockdown)
19 | CCCCCCCCCCCCNC(=O)CCN(CCC(=O)NCCCCCCCCCCCC)CCN(CCC(=O)NCCCCCCCCCCCC)CCC(=O)NCCCCCCCCCCCC [ND99] | −20.0273
20 | CCCCCCCCCCCCCCCNC(=O)CCN(CC)CCCN(CC)CCC(=O)NCCCCCCCCCCCCCCC [NG64] | 1.439
